{"source": "paper PMC11251039", "about": "“Harnessing cholesterol uptake of malaria parasites for therapeutic applications” (EMBO Molecular Medicine, 2024)", "key": {"[1]": {"tested_on": "P. falciparum CAM3.IIREV ring stages (0–3 h post invasion)", "test": "Plasmodium falciparum ring stage survival assay, susceptible revertant strain", "format": "cell-based", "procedure": "(§1) Following tight synchronisation using sorbitol and Percoll® floatation, ring stage CAM3.II and CAM3.IIREV parasites (0–3 h post invasion) at 1% parasitaemia and 2% haematocrit were incubated with 700 nM of compounds or solvent-only controls for exactly 6 h, before removing the drug, thoroughly washing in RPMI with HEPES, and returning to culture conditions for a further 66 h. Some cells were treated with 700 nM artesunate for 72 h as a no-growth control. DNA replication (indicating growth) was measured at the specified time using SYBR Safe DNA Stain. Microscope slide smears of each condition were stained with 10% v/v Giemsa and examined under a light microscope (×1000 magnification); with ‘viable’ (morphologically normal) and ‘non-viable’ (morphologically aberrant; vacuolated or pyknotic) parasites distinguished according to standard protocol (Witkowski et al, [2013]). Images were captured using a Leica ICC50 camera, with a resolution of 76 nm per pixel, and cropped from larger images using Fiji ImageJ.\n(§2) Appendix Fraser/Curtis et al.\n(§3) Cells were detached from a flask using 0.25% Trypsin with 0.2 g/L EDTA (Sigma T4049) and washed with culture media containing no phenol red. Cells were incubated with a serial dilution of each compound, or media/DMSO alone. The protein synthesis inhibitor cycloheximide (Sigma 01810) at 10 µg/mL was used as a positive control to determine background absorbance. 5,000 cells were seeded in each well. After 96 hours, 0.45 mg/mL methylthiazolyldiphenyl-tetrazolium bromide (MTT; Sigma M2128) was added and incubated for a further two hours, before mixing 1.1:1 with 10% w/v sodium dodecyl sulfate (SDS) to solubilise crystals and freezing the plate at -18 °C to stop the assay. Plates were defrosted at room temperature and absorbance was read at 570 nm in an Infinite M1000 pro plate reader […]\n(§4) Plasmodium falciparum Ring Stage Survival Assay\n(§5) Ring stage survival assays were conducted according to standard protocols with some modifications (27, 28). CAM3.11 and CAM3.11REV parasites were sorbitol synchronised twice, 12 hours apart, and then incubated for a further 30 hours until the majority of the parasites were mature schizonts (with clearly separated nuclei). Pelleted RBCs were incubated at 37 °C with heparinised RPMI for 15 minutes, and then centrifuged over 75% Percoll® in PBS for 15 minutes at 1,000 g. Mature schizonts were collected, washed with warm RPMI, and cultured for exactly three hours with fresh uRBCs and culture media. After 3 hours, the cultures were sorbitol synchronised and incubated in duplicate with 700 nM of artesunate, PAYb076a, GGA5, HJB8a53, a DMSO solvent-only control or media alone for exactly six hours, before removing the drug, washing in RPMI, and returning to culture conditions. Samples of each cell suspension were transferred to a -18 °C freezer at the start of the assay (time = 0) or treated for the entire 72 hours with 700 nM artesunate to determine background fluorescence under no-growth conditions. After a further 66 hours of incubation (totalling 72 hours), cells were […]\n(§6) resuspended, and a sample from each well was transferred to a fresh plate and frozen at -18 °C.\n(§7) Microscope slide smears were made using the remaining cells and stained with 10% v/v Giemsa. Plates were thawed and SYBR Safe DNA Gel Stain (final concentration 1/10,000) diluted in lysis buffer (as above) was added for DNA detection at 490 nm excitation / 520 nm emission on a FLUOstar Optima fluorescence plate reader. Parasite proliferation and viability were also assessed using Giemsa-stained smears examined under a light microscope (1,000× magnification); with ‘viable’ and ‘non-viable’ (vacuolated or pyknotic) parasites distinguished according to standard protocol. Images were captured using a Leica ICC50 camera, with a resolution of 76 nm per pixel.\n(§8) Growth inhibition data were normalised by subtracting background fluorescence, […]"}, "[2]": {"tested_on": "asexual P. falciparum CAM3.II (Resistant)", "test": "P. falciparum asexual growth inhibition assay, resistant strain", "format": "cell-based", "details": "Plasmodium falciparum; 72 h, CAM3.II (Resistant); read-out: IC50, P. falciparum asexual growth inhibition", "procedure": "(§9) P. falciparum asexual parasite assays commenced with ring-stage parasites at 1% parasitaemia and 1% haematocrit. 200 nM chloroquine (Sigma C6628) or artesunate (Sigma A3731) was used as a no-growth control. DNA replication (indicating growth) was measured at the specified time using SYBR Safe DNA Gel Stain (Invitrogen 33102) and a fluorescence microplate reader (Smilkstein et al, [2004]; Spry et al, [2013]).\nas §2\n(§10) Growth and Viability Inhibition Assays:\n(§11) Plasmodium falciparum Growth Inhibition Assays:\n(§12) P. falciparum parasites were maintained under routine culture conditions in red blood cells and RPMI 1640-Hepes with Glutamax, supplemented with 10 mM D-glucose, 480 μM hypoxanthine, 20 μg/mL gentamicin, 0.375% (w/v) AlbuMAXTM II (Thermo Fisher 11021029), and 2.5% v/v heat-inactivated human serum (17). Cultures were maintained at 37 °C […]\n(§13) Growth inhibition was investigated according to methods described by Smilkstein et al. (19) with modifications by Spry et al. (20). […] 200 nM chloroquine (Sigma C6628) or artesunate (Sigma A3731) was used as a positive control to determine background fluorescence. The parasitaemia of a culture containing predominantly ring stage parasites was counted by Giemsa smear. […] Fluorescence was detected at 490 nm excitation/ 520 nm emission on a FLUOstar Optima fluorescence plate reader (BMG Labtech)."}, "[3]": {"parameters": "method as in Morris et al, 2011", "details": "ref Morris et al, 2011; cited from earlier work"}, "[4]": {"tested_on": "asexual P. falciparum CAM3.IIREV (Susceptible)", "test": "P. falciparum asexual growth inhibition assay, revertant strain", "format": "cell-based", "details": "Plasmodium falciparum, 72 h, read-out: IC50, P. falciparum asexual growth inhibition", "procedure": "as §9, §2, §10, §11, §12, §13"}, "[5]": {"tested_on": "P. falciparum CAM3.II ring stages (0–3 h post invasion)", "test": "Plasmodium falciparum ring stage survival assay, resistant strain", "format": "cell-based", "procedure": "as §1, §2, §3, §4, §5, §6, §7, §8"}, "[6]": {"tested_on": "asexual P. falciparum 3D7 wild-type parasites", "test": "P. falciparum asexual growth inhibition assay (SYBR Safe DNA replication)", "format": "cell-based, Plasmodium falciparum", "details": "Plasmodium falciparum; 72 h, 3D7 (Susceptible); read-out: IC50, P. falciparum asexual growth inhibition", "procedure,_shortened": "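Sorbitol-synchronised ring-stage cultures at 1% parasitaemia and 1% haematocrit were exposed to 2-fold compound dilutions at 37 °C under microaerophilic conditions for 24, 48 or 72 h. Growth was read by SYBR Safe fluorescence of freeze-thaw lysates, with 200 nM chloroquine or artesunate defining background.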"}}, "note": "pIC50: −log10 of the molar value. “And” between values parts separate entries of the source, which are not always exact repeats. Equal entries are not always repeated.", "data": [{"compound": "C[C@H]1[C@H](OC(=O)CCC(=O)O)O[C@@H]2O[C@@]3(C)CC[C@H]4[C@H](C)CC[C@@H]1[C@@]24OO3", "note": "[Artesunate, artesunate, reference compound]", "values": [{"measurement": "Parasite morphology in Giemsa-stained smears", "setting": "[1]; 700 nM, 6 h treatment, 66 h further growth, CAM3.IIREV susceptible", "value": "only morphologically aberrant parasites were present"}, {"measurement": "Ring stage survival, individual data points (Figure 4C)", "setting": "[1]; CAM3.11REV, replicate experiments", "value": "-6.969 and -6.239 and -6.353 and -8.044"}, {"measurement": "pIC50", "setting": "[2]", "value": 8.17}, {"measurement": "Half-life in blood", "setting": "[3]", "value": "30 to 90", "unit": "min"}, {"measurement": "pIC50", "setting": "[4]", "value": 8.24}, {"measurement": "Proportion of resistant parasites surviving treatment (DNA replication)", "setting": "[5]; 700 nM, 6 h treatment, 66 h further growth, CAM3.II", "value": "~ 30%"}, {"measurement": "Parasite morphology in Giemsa-stained smears", "setting": "[5]; 700 nM, 6 h treatment, 66 h further growth, CAM3.II resistant", "value": "a combination of morphologically normal parasites (green arrows) and morphologically aberrant pyknotic or vacuolated forms"}, {"measurement": "Ring stage survival, individual data points (Figure 4C)", "setting": "[5]; CAM3.11, replicate experiments", "value": "35.31 and 54.58 and 24.97 and 17.6"}, {"measurement": "pIC50", "setting": "[6]", "value": 8.17}]}]}
